Assays:
15-LOX-1 = target: T1, 15-LOX-1 (Homo sapiens, UniProt P16050); experiment: Lipoxygenase UV-Vis assay, 15-LOX-1; type: biochemical; conditions: estimated from one inhibitor point at 20 µM; 10 µM AA
T1 construct: His6 (N); made in house
T1 sequence (P16050 1-662): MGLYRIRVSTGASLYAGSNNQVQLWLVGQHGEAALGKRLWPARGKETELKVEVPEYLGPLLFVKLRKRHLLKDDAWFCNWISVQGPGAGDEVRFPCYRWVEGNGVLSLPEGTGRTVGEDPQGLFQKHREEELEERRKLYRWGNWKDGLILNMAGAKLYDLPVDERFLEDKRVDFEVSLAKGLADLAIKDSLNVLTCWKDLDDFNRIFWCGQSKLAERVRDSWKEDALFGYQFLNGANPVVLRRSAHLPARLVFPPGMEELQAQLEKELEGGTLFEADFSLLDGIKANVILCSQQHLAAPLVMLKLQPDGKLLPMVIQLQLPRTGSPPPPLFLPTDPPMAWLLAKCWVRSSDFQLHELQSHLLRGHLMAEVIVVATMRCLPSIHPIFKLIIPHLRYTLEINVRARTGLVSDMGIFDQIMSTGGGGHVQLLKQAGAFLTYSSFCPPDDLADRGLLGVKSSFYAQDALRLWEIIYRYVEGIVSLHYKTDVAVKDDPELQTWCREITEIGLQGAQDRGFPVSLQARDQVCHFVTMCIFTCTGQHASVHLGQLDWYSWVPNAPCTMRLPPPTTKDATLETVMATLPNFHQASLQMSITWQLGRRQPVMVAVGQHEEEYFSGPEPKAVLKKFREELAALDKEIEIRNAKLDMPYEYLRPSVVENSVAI
Excerpt: Different lipoxygenases, such as 15-LOX-1, 15-LOX-2, and 12-LOX were expressed as N-terminal His6-tagged proteins and were purified via immobilized metal affinity chromatography (IMAC) using an Ni-NTA resin for 15-LOX-1 [12], and 15-LOX-2 [17], and a Ni-IDA resin for 12-LOX [18]. […] Human leukocyte 5-lipoxygenase (5-LOX) was expressed as a non-tagged protein and used as a crude ammonium sulfate protein fraction, as published previously, [20].
The inhibitor compounds were screened initially using one concentration point at 25 µM on a Perkin-Elmer Lambda 40 UV/Vis spectrophotometer. […] The reactions were initiated by adding 200 nM 15-LOX-2, 30 nM 12-LOX, 40 nM 15-LOX-1, or approximately 100–300 nM (5–10 µL) of 5-LOX crude extract to a cuvette with 2 mL reaction buffer, constantly stirred using a magnetic stir bar at room temperature (22°C). Reaction buffers used for various LOX isozymes were as follows: 25 mM HEPES (pH 7.3), 0.3 mM CaCl2, 0.1 mM EDTA, 0.2 mM ATP, 0.01% Triton X-100, 10 µM AA for the crude, ammonium sulfate precipitated 5-LOX; and 25 mM HEPES (pH 7.5), 0.01% Triton X-100, 10 µM AA for 15-LOX-2, 15-LOX-1, and 12-LOX. […] The data were then plotted against inhibitor concentration, followed by a hyperbolic saturation curve fit (assuming total enzyme concentration [E]≪IC50). […] All inhibitors were stored at −20°C in DMSO. […]

ovine COX-1 = target: T2, ovine COX-1 (Ovis aries, UniProt P05979); experiment: Cyclooxygenase assay (oxygen electrode), COX-1; type: biochemical; conditions: estimated from one inhibitor point at 20 µM; 100 µM AA
T2 construct: purchased Cayman Chemical
T2 sequence (P05979 25-600): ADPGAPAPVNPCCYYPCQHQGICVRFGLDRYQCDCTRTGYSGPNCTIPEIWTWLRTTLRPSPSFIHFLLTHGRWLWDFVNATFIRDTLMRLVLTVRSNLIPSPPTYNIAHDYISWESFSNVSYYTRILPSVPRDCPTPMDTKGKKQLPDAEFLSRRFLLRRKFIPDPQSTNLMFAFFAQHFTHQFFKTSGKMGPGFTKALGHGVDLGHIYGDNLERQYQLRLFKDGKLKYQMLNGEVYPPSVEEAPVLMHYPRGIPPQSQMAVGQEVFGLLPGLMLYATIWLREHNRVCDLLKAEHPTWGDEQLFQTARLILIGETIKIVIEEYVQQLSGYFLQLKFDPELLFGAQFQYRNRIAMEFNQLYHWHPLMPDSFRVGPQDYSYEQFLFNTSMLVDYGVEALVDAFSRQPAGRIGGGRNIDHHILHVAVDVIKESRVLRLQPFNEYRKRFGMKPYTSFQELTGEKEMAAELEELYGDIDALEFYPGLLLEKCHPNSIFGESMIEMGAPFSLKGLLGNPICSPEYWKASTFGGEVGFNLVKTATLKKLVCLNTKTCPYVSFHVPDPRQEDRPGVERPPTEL
Method: Cyclooxygenase activity assay was performed as previously described. Approximately 3 µg of either ovine COX-1 (COX-1) or human recombinant COX-2 (COX-2) (Cayman Chemical) were added to buffer containing 0.1 M Tris-HCl buffer (pH 8.0), 5 mM EDTA, 2 mM phenol and 1 µM hematin at 37°C. The selected inhibitors were added to the reaction cell, followed by an incubation of 5 minutes with either of the COX enzymes. The reaction was then initiated by adding 100 µM AA in the reaction cell, as indicated in enzymatic protocol (Cayman Chemicals). Data were collected using a Hansatech DW1 oxygen electrode and the consumption of oxygen was recorded. Indomethacin and the solvent (DMSO), were used as positive and negative controls, respectively, and the percent inhibition of the enzyme was calculated by comparing the rates of the samples to the controls.

SMILES | IC50 (15-LOX-1) [µM] | IC50 (ovine COX-1) [µM]
Clc1ccc(-c2nnc(C3CCCCC3)o2)cc1 [MLS000545091] | > 100 | > 50
Cc1ccc(CSc2ncn(-c3ccccc3)n2)cc1 [MLS000536924] | > 50 | > 100
